{"source": "paper PMC6155665", "about": "“Antiplasmodial Activity, Cytotoxicity and Structure-Activity Relationship Study of Cyclopeptide Alkaloids” (Molecules : A Journal of Synthetic Chemistry and Natural …, 2017)", "key": {"[1]": {"system": "P. falciparum strain K1", "experiment": "In vitro antiplasmodial activity", "assay_type": "cell-based", "conditions": "Plasmodium falciparum", "protocol": "(§1) The antiplasmodial and cytotoxic activity determinations of all cyclopeptide alkaloids were performed as reported before. Each experiment was performed at least in triplicate and the average IC50 values were calculated."}, "[2]": {"experiment": "Cytotoxicity against MRC-5 cells", "conditions": "human", "protocol": "as §1"}, "[3]": {"system": "Plasmodium falciparum", "conditions": "cited from earlier work; for IC50: read-out: antiplasmodial IC50"}, "[4]": {"system": "P. falciparum strain K1", "design": "method as in PMID 27351950, PMID 27933893", "conditions": "previously reported by the same group, same test conditions; cited from earlier work"}, "[5]": {"system": "MRC-5 cells", "conditions": "cited from earlier work"}, "[6]": {"conditions": "strain K1, average of at least triplicate, read-out: P. falciparum K1 IC50"}, "[7]": {"conditions": "read-out: MRC-5 IC50, cytotoxicity, previously reported by the same group"}, "[8]": {"conditions": "corresponding to the μg/mL values, Suksamrarn et al."}}, "note": "Read-outs that look alike come from different tables or passages of the source.", "data": [{"compound": "CCN(CC)CCCC(C)Nc1ccnc2cc(Cl)ccc12", "note": "(stereo not shown) [Chloroquine, reference compound]", "values": [{"measurement": "IC50", "setting": "[1]; K1, read-out: P. falciparum K1 IC50", "result": 0.15, "unit": "µM"}]}, {"compound": "CCC(C)[C@@H]1NC(=O)[C@@H]2[C@H](CCN2C(=O)[C@@H](NC)C(C)CC)Oc2ccc(cc2)/C=C\\NC1=O", "note": "(stereo partly shown) [Compound 1, Nummularine-U]", "values": [{"measurement": "IC50", "setting": "[1]; [6]", "result": "23 ± 8.5", "unit": "µM"}, {"measurement": "IC50", "setting": "[2]; MRC-5 cells", "result": "> 64", "unit": "µM"}]}, {"compound": "CN[C@@H](C)C(=O)N[C@H](C(=O)N1CC[C@@H]2Oc3ccc(cc3)/C=C\\NC(=O)[C@H](Cc3ccccc3)NC(=O)[C@H]21)C(C)C", "note": "[Compound 2, Mauritine-F]", "values": [{"measurement": "IC50", "setting": "[1]; [6]", "result": "34.2 ± 9.14", "unit": "µM"}, {"measurement": "IC50", "setting": "[2]", "result": "> 64", "unit": "µM"}]}, {"compound": "CCC(C)[C@@H]1NC(=O)[C@@H]2[C@H](CCN2C(=O)[C@@H](NC(=O)[C@H](Cc2ccccc2)N(C)C)C(C)CC)Oc2ccc(O)c(c2)/C=C\\NC1=O", "note": "(stereo partly shown) [Compound 3, Spinanine-B]", "values": [{"measurement": "IC50", "setting": "[1]; [6]", "result": "2.1 ± 0.3", "unit": "µM"}, {"measurement": "IC50", "setting": "[2]", "result": "> 64", "unit": "µM"}]}, {"compound": "CC(C)C[C@@H]1NC(=O)[C@@H](NC(=O)[C@H](C(C)O)N(C)C)[C@H](c2ccccc2)Oc2ccc(cc2)/C=C\\NC1=O", "note": "(stereo partly shown) [Compound 4, Nummularine-E]", "values": [{"measurement": "IC50", "setting": "[1]; [6]", "result": "> 64", "unit": "µM"}, {"measurement": "IC50", "setting": "[2]; MRC-5 cells", "result": "> 64", "unit": "µM"}]}, {"compound": "CCC(C)[C@@H]1NC(=O)[C@@H]2[C@H](CCN2C(=O)[C@@H](NC(=O)[C@H](Cc2ccccc2)N(C)C)C(C)CC)Oc2ccc(cc2)/C=C\\NC1=O", "note": "(stereo partly shown) [Compound 5, Amphibine-D]", "values": [{"measurement": "IC50", "setting": "[1]; [6]", "result": "8.9 ± 1.5", "unit": "µM"}, {"measurement": "IC50", "setting": "[2]", "result": "> 64", "unit": "µM"}]}, {"compound": "CN[C@@H](C)C(=O)N[C@H](C(=O)N1CC[C@@H]2Oc3ccc(OC)c(c3)/C=C\\NC(=O)[C@H](C(C)C)NC(=O)[C@H]21)C(C)C", "note": "[Compound 6, Jubanine-F]", "values": [{"measurement": "IC50", "setting": "[1]; [6]", "result": "12.8 ± 2.9", "unit": "µM"}, {"measurement": "IC50", "setting": "[2]", "result": "> 64", "unit": "µM"}]}, {"compound": "CCC(C)[C@H](NC(=O)[C@H](C)NC)C(=O)N1CC[C@@H]2Oc3ccc(OC)c(c3)/C=C\\NC(=O)[C@H](C(C)C)NC(=O)[C@H]21", "note": "(stereo partly shown) [Compound 7, Jubanine-G]", "values": [{"measurement": "IC50", "setting": "[1]; [6]", "result": "4.7 ± 2.4", "unit": "µM"}, {"measurement": "IC50", "setting": "[2]", "result": "> 64", "unit": "µM"}]}, {"compound": "CN[C@@H](C)C(=O)N[C@H](C(=O)N1CC[C@@H]2Oc3ccc(OC)c(c3)/C=C\\NC(=O)[C@H](Cc3ccccc3)NC(=O)[C@H]21)C(C)C", "note": "[Compound 8, Nummularine-B]", "values": [{"measurement": "IC50", "setting": "[1]; [6]", "result": "3.6 ± 1.3", "unit": "µM"}, {"measurement": "IC50", "setting": "[2]", "result": "> 64", "unit": "µM"}, {"measurement": "antiplasmodial activity against Plasmodium falciparum (in words)", "setting": "[3]; Panseeta et al.", "result": "moderately active"}, {"measurement": "IC50", "setting": "[3]; Panseeta et al.", "result": 10.3, "unit": "µM"}]}, {"compound": "CC[C@H](C)[C@@H]1NC(=O)[C@@H](NC(=O)[C@H](CC(C)C)N(C)C)[C@H](C(C)C)Oc2ccc(cc2)/C=C\\NC1=O", "note": "[Compound 9, Adouetine-X]", "values": [{"measurement": "IC50", "setting": "[1]; [6]", "result": "7.5 ± 1.8", "unit": "µM"}, {"measurement": "IC50", "setting": "[2]; MRC-5 cells", "result": "19.1 ± 11.9", "unit": "µM"}]}, {"compound": "CCC(C)[C@@H](C(=O)N[C@@H]1C(=O)N[C@@H](CC(C)C)C(=O)N/C=C\\c2ccc(cc2)O[C@H]1C(C)C)N(C)C", "note": "(stereo partly shown) [Compound 10, Frangulanine]", "values": [{"measurement": "IC50", "setting": "[1]; [6]", "result": "14.9 ± 5.2", "unit": "µM"}, {"measurement": "IC50", "setting": "[2]; MRC-5 cells", "result": "30.6 ± 6.5", "unit": "µM"}]}, {"compound": "CCC(C)[C@@H](C(=O)N[C@H](C(=O)N[C@@H]1C(=O)N[C@@H](Cc2c[nH]c3ccccc23)C(=O)NCC(=O)c2ccc(cc2)OC1(C)C)C(C)C)N(C)C", "note": "(stereo partly shown) [Compound 11, Hymenocardine]", "values": [{"measurement": "IC50", "setting": "[4]", "result": "16.4 ± 6.8", "unit": "µM"}, {"measurement": "IC50", "setting": "[5]", "result": "51.1 ± 17.2", "unit": "µM"}]}, {"compound": "CCC(C)[C@@H](C(=O)N[C@H](C(=O)N[C@@H]1C(=O)N[C@@H](Cc2c[nH]c3ccccc23)C(=O)NCC(O)c2ccc(cc2)OC1(C)C)C(C)C)N(C)C", "note": "(stereo partly shown) [Compound 12, Hymenocardinol]", "values": [{"measurement": "IC50", "setting": "[4]", "result": "17.5 ± 8.7", "unit": "µM"}, {"measurement": "IC50", "setting": "[5]", "result": "> 64", "unit": "µM"}]}, {"compound": "CCC(C)[C@@H](C(=O)N[C@H](C(=O)N[C@@H]1C(=O)N[C@@H](Cc2c[nH]c3ccccc23)C(=O)NCC(=O)c2ccc(cc2)OC1(C)C)C(C)C)[N+](C)(C)[O-]", "note": "(stereo partly shown) [Compound 13, Hymenocardine N-oxide]", "values": [{"measurement": "IC50", "setting": "[4]", "result": "12.2 ± 6.6", "unit": "µM"}, {"measurement": "IC50", "setting": "[5]", "result": "> 64", "unit": "µM"}]}, {"compound": "CCC(C)[C@H](NC(=O)[C@H](C(C)CC)N(C)C)C(=O)N[C@@H]1C(=O)N[C@@H](Cc2c[nH]cn2)C(=O)NCC(=O)c2ccc(cc2)O[C@H]1C(C)C", "note": "(stereo partly shown) [Compound 14, Hymenocardine-H]", "values": [{"measurement": "IC50", "setting": "[4]", "result": "27.9 ± 16.5", "unit": "µM"}, {"measurement": "IC50", "setting": "[5]", "result": "> 64", "unit": "µM"}]}, {"compound": "CCC(C)[C@@H]1NC(=O)[C@@H]2[C@H](CCN2C(=O)[C@H](Cc2c[nH]c3ccccc23)N(C)C)Oc2ccc(OC)c(c2)/C=C\\NC1=O", "note": "(stereo partly shown) [Compound 15, Nummularine-R]", "values": [{"measurement": "IC50", "setting": "[4]", "result": "3.2 ± 2.6", "unit": "µM"}, {"measurement": "IC50", "setting": "[5]; [7]", "result": "30.6 ± 4", "unit": "µM"}]}, {"compound": "CCC(C)[C@@H]1NC(=O)[C@@H]2[C@H](CCN2C(=O)[C@H](Cc2c[nH]c3ccccc23)N(C)C)Oc2ccc(O)c(c2)/C=C\\NC1=O", "note": "(stereo partly shown) [Compound 16, O-desmethylnummularine-R]", "values": [{"measurement": "IC50", "setting": "[4]", "result": "7.1 ± 1.6", "unit": "µM"}, {"measurement": "IC50", "setting": "[5]; [7]", "result": "> 64", "unit": "µM"}]}, {"compound": "CCC(C)[C@@H]1NC(=O)[C@@H]2[C@H](CCN2C(=O)[C@H](Cc2c[nH]c3ccccc23)N(C)C)Oc2ccc(cc2)/C=C\\NC1=O", "note": "(stereo partly shown) [Compound 17, Hemsine-A]", "values": [{"measurement": "IC50", "setting": "[4]", "result": "13.6 ± 9.3", "unit": "µM"}, {"measurement": "IC50", "setting": "[5]; [7]", "result": "> 64", "unit": "µM"}]}, {"compound": "CCC(C)[C@@H]1NC(=O)[C@@H]2[C@H](CCN2C(=O)[C@H](C(C)CC)N(C)C)Oc2ccc(cc2)/C=C\\NC1=O", "note": "(stereo partly shown) [Compound 18, Ramosine-A]", "values": [{"measurement": "IC50", "setting": "[4]", "result": "> 32", "unit": "µM"}, {"measurement": "IC50", "setting": "[5]; [7]", "result": "> 64", "unit": "µM"}]}, {"compound": "O=C1N/C=C\\c2ccc(cc2)O[C@@H](c2ccccc2)[C@H](NC(=O)[C@@H]2CCCN2C(=O)/C=C/c2ccccc2)C(=O)N[C@H]1C(O)c1ccccc1", "note": "(stereo partly shown) [Compound 19, Oxyphylline-F]", "values": [{"measurement": "IC50", "setting": "[4]", "result": "7.4 ± 3", "unit": "µM"}, {"measurement": "IC50", "setting": "[5]; [7]", "result": "31.2 ± 1.4", "unit": "µM"}]}, {"compound": "CCC(C)[C@H](C(=O)N[C@@H](CC(C)C)C(=O)N1CC[C@@H]2Oc3ccc(OC)c(c3)/C=C\\NC(=O)[C@@H]3CCCN3C(=O)[C@H]21)N(C)C", "note": "(stereo partly shown) [ziziphine-N]", "values": [{"measurement": "antiplasmodial IC50", "setting": "[3]; Suksamrarn et al.", "result": 3.92, "unit": "µg/mL"}, {"measurement": "IC50", "setting": "[3]; [8]", "result": 6.4, "unit": "µM"}]}, {"compound": "CCC(C)[C@@H](NC)C(=O)N[C@@H](CC(C)C)C(=O)N1CC[C@@H]2Oc3ccc(OC)c(c3)/C=C\\NC(=O)[C@@H]3CCCN3C(=O)[C@H]21", "note": "(stereo partly shown) [ziziphine-O]", "values": [{"measurement": "antiplasmodial activity (in words)", "setting": "[3]; Suksamrarn et al.", "result": "not active"}]}, {"compound": "CCC(C)[C@H](C(=O)N[C@H](C(=O)N1CC[C@@H]2Oc3ccc(OC)c(c3)/C=C\\NC(=O)[C@@H]3CCCN3C(=O)[C@H]21)C(C)C)N(C)C", "note": "(stereo partly shown) [ziziphine-Q]", "values": [{"measurement": "antiplasmodial IC50", "setting": "[3]; Suksamrarn et al.", "result": 3.5, "unit": "µg/mL"}, {"measurement": "IC50", "setting": "[3]; [8]", "result": 5.9, "unit": "µM"}]}, {"compound": "mauritine-L", "values": [{"measurement": "antiplasmodial activity against Plasmodium falciparum (in words)", "setting": "[3]; Panseeta et al.", "result": "not"}]}, {"compound": "nummularine-B methiodide", "values": [{"measurement": "antiplasmodial activity against Plasmodium falciparum (in words)", "setting": "[3]; Panseeta et al.", "result": "not"}]}, {"compound": "ziziphine-P", "values": [{"measurement": "antiplasmodial activity (in words)", "setting": "[3]; Suksamrarn et al.", "result": "not active"}]}]}
